Here are results for eight compounds from US20240335395A1, “COMPOSITIONS AND METHODS FOR PREVENTING AND/OR TREATING DISEASE ASSOCIATED WITH IL-23 EXPRESSION” (ALLSPIM, priority 2021, published 2024).

In experiment [1] the test system is IL-23. Description: IL-23 production (ELISA of supernatant) in LPS-stimulated THP-1 cell culture, Examples 1 and 8. Format: cell-based, human. The method, then:
The THP-1 cell line (TIB-202) was obtained from the American Type Culture Collection (ATCC, USA), grown in RPMI 1640 culture medium (Gibco) supplemented with 10% fetal bovine serum (Gibco, UK), 50 U/mL penicillin-streptomycin (Gibco), and 0.05 mM 2-Mercaptoethanol (Gibco). Cultured cells were plated into culture plates in appropriate volumes with a cell density of 500,000 cells/mL.
PCR was performed in duplicate using SYBR Green qPCR master mix (Takara Biomedical Technology Co., Ltd, Dalian, China) on an ABI 7500 Real-Time PCR System (Thermo, USA). The cycling program was as follows: denaturation at 95° C. for 15 s, 40 cycles of 95° C. for 15 s and extension at 60° C. for 60 s, followed by melt curve generation. The ΔΔCT method was used to quantify relative mRNA levels as described in User Bulletin #2 for the ABI PRISM 7700 Sequence Detection System (Applied Biosystems, 2001). The primer sequences used in this study are 5′-[…]-3′ (forward), 5′-[…]-3′ (reverse) for human IL-23p19 (SEQ ID NOs: 4 and 5, respectively); and 5′-ACAGTCCATGCCATCACTG-3′ (forward) and 5′-AGTAGAGGCAGGGATGATG-3′ for human GAPDH as a reference (SEQ ID NOs: 6 and 7, respectively). 24 hours after culture and treatments, supernatants were collected and IL-23 levels measured using the IL-23 Human Uncoated ELISA Kit (ThermoFisher Scientific Inc., USA) according to the manufacturer's instructions. A Varioskan LUX microplate reader (Thermo Fisher, USA) was used for the assay and 4-parameter logistic regression was used for data analysis. Two duplicates per sample were performed and results were averaged.
The anti-IL-23 activity of 2,4-D was compared with the commercially prescribed nonsteroidal anti-inflammatory drugs (NSAIDs:[…], Ibuprofen, and Aspirin) in the LPS-stimulated THP-1 cell culture system described above (Example 1)).
In general terms: An ELISA detects its analyte on a solid surface through an enzyme-linked reagent.

For experiment [2], the system named is MSU-induced knee joint edema. Description: MSU-induced knee joint edema in mice. Format: in vivo, mouse. The conditions noted are these: 20 h; high dose i.p.: 2,4-D 100 mg/kg, CLC 1 mg/kg, DEX 0.5 mg/kg. On the procedure:
(§1) 2,4-D, isolated and purified from Chloranthus spicatus (purity≥98%), was purchased from BOC Science (Shirley, NY). Colchicine (CLC) (purity≥96%) and dexamethasone (DEX) (purity≥98%) were purchased from Sigma. Mice (six per group) were treated with 2,4-D (100 mg/kg or 20 mg/kg, i.p.), CLC (1 mg/kg or 0.2 mg/kg, i.p.), DEX (0.5 mg/kg or 0.1 mg/kg, i.p.), or vehicle (20% polyoxyethylenesorbitan monooleate (Tween 80) plus PBS) 30 min before intra-articular stimulus with MSU (100 μg/10 μL, i.a.). Six mice with intra-articular injection with PBS alone served as a negative control.
Preparation of monosodium urate crystal (MSU). MSU crystals were prepared as described previously (Ruiz-Miyazawa et al., 2017). Briefly, 800 mg of monosodium urate was dissolved in 155 ml of boiling milli-Q water containing 2N NaOH. After pH adjustment to 8.9, the solution was cooled gradually by stirring at room temperature and crystallized overnight at 4° C. Crystals were collected, and centrifuged at 3,000×g for 2 min at 4° C. The crystals were evaporated and sterilized by heating at 180° C. for 2 h and stored in a sterile environment until use. The load of endotoxin present in the MSU crystals was determined using a ToxinSensor^TM Single Test Kit (GenScript).
(§2) Induction of MSU-Induced Knee Joint Inflammation. Male ICR (CD-1) mice (35-45 g, 10-12 weeks) were purchased from VitalRiver Inc (Beijing, China) and were kept in an animal care facility under controlled temperature of 21±1° C., humidity, and on a light/dark cycle, with ad libitum access to water and standard laboratory chow diet. Animal care and handling procedures were approved by the Animal Ethics Committee of GZUCM (Guangzhou University of Chinese Medicine). All efforts were made to minimize animal suffering and to reduce the number of animals used. Joint inflammation was induced by the intra-articular (i.a.) administration of MSU (200 μg/20 μl) into the right and left knee joints of mice under inhaled 3% isoflurane anesthesia. Control animals received an injection (i.a.) of sterile PBS (20 μL).
Evaluation of Knee Joint Edema. Knee joint edema was determined with a caliper (Mitutoyo) before (zero time), and after the intra-articular injection with MSU at the times indicated. Knee joint edema was determined for each mouse by the difference between the time points indicated on figures and the zero time (Ruiz-Miyazawa et al, 2017). The edema value is represented as Amm/joint.
Statistical Analysis. Data were analyzed using GraphPad Prism statistical software (GraphPad Software, Inc., United States-500.288, version 5.0). Results are presented as means±SEM or SD of measurements made on 6 mice per group, with statistical significance determined by two-way ANOVA, comparing each group to the control (“Model”) group. For in vitro experiments, microassays were performed in quadruplicate. p<0.05 was considered significant (*p<0.05, **p<0.01, ***p<0.001).

Experiment [3] relates to MSU-induced leukocyte recruitment. Put plainly: MSU-induced leukocyte recruitment to the synovial cavity of knee joint. Type of experiment: in vivo, mouse. The conditions noted are these: 20 h; 2,4-D 100 mg/kg, CLC 1 mg/kg, DEX 0.5 mg/kg. On the procedure: as §1, §2
Histopathological Analysis. Knee joint was collected 20 h after MSU injection, fixed with 10% paraformaldehyde in PBS, and then decalcified for 10 days with EDTA and embedded in paraffin for histological analysis. […] Results are expressed as leukocytes infiltrate (cell/field) counted at the inflammatory foci within synovial cavity as indicative of synovitis. […]
Statistical Analysis. Data were analyzed using GraphPad Prism statistical software (GraphPad Software, Inc., United States-500.288, version 5.0). Results are presented as means±SEM or SD of measurements made on 6 mice per group, with statistical significance determined by two-way ANOVA, comparing each group to the control (“Model”) group. […]

The subject of a further experiment is IL-1ß. Put plainly: MSU-induced IL-1ß in knee joint tissue (multiplex microassay). Type of experiment: in vivo, mouse. The conditions noted are these: 2,4-D 100 mg/kg, CLC 1 mg/kg, DEX 0.5 mg/kg. The method, then: (§3) Mice (six per group) were treated with 2,4-D (100 mg/kg or 20 mg/kg, i.p.), CLC (1 mg/kg or 0.2 mg/kg, i.p.), DEX (0.5 mg/kg or 0.1 mg/kg, i.p.), or vehicle (20% polyoxyethylenesorbitan monooleate (Tween 80) plus PBS) 30 min before intra-articular stimulus with MSU (100 μg/10 μL, i.a.). Six mice with intra-articular injection with PBS alone served as a negative control.
as §2
(§4) Cytokine Measurement. Mice were anesthetized and sacrificed. Knee joints were collected and frozen in liquid nitrogen. Samples were then homogenized in 500 μl of buffer containing protease inhibitors, centrifuged (3600 rpm, 4° C., 15 min) and supernatants were used to determine Th1/Th2/Th17 cytokine levels using a multiplex microassay (Qantibody® mouse TH17 Array 1 kit, Cat. No.: QAM-TH17-1; RayBiotech, Norcross, GA). Results were expressed as picograms (pg) of cytokine/mg of tissue.
(§5) Statistical Analysis. […] For in vitro experiments, microassays were performed in quadruplicate. p<0.05 was considered significant (*p<0.05, **p<0.01, ***p<0.001).

For a further experiment, the system named is IL-6. Put plainly: MSU-induced IL-6 in knee joint tissue (multiplex microassay). Format: in vivo, mouse. The conditions noted are these: 2,4-D 100 mg/kg, CLC 1 mg/kg, DEX 0.5 mg/kg. On the procedure:
as §3, §2, §4, §5

The test system of the next experiment is IL-10. Put plainly: MSU-induced IL-10 in knee joint tissue (multiplex microassay). The conditions noted are these: CLC 1 mg/kg. Format: in vivo, mouse. The method, then: as §3, §2, §4, §5
In the next experiment the test system is TNF-alpha. Description: MSU-induced TNF-alpha in knee joint tissue (multiplex microassay). Type of experiment: in vivo, mouse. The conditions noted are these: 2,4-D 100 mg/kg, CLC 1 mg/kg, DEX 0.5 mg/kg. On the procedure: as §3, §2, §4, §5
Experiment [4] relates to IL-23. Description: IL-23 production (ELISA) in LPS-stimulated THP-1 cells, 2,4-D versus other chalcones, Example 2. The conditions noted are these: LPS-stimulated THP-1, 24 h. Type of experiment: cell-based, human. An excerpt: Molecules tested. Natural 2,4-D, isolated and purified from Chloranthus spicatus (purity HPLC≥98%, Cat. No.: 129742-43-2), was purchased from BOC Science (Shirley, NY). Synthetic 2,4-D (purity HPLC≥98%) was obtained from YIWEI Biotech (Shanghai, China). 2′-hydroxychalcone (2′-HC, purity HPLC≥98%, Cat. No.: 42224-53-3), 4-hydroxychlcone (4-HC, purity HPLC≥98%, Cat. No.: 20426-12-4), 2′,2-dihydroxychalcone (2′,2-DHC, purity HPLC≥98%, Cat. No.: IDF00045_ALDRICH), 2′,3-dihydroxychalcone (2′,3-DHC, purity HPLC≥98%, Cat No.: IDF00047_ALDRICH), 2′,4-dihydroxychalcone (2′,4-DHC, purity HPLC≥98%, Cat. No.: PH011685_ALDRICH), 2′,5′-dihydroxychalcone (2′,5′-DHC, purity HPLC≥98%, No.: IDF00046-1G), and 2′,4′,4-trihydroxychalcone (2′,4′4-THC, purity HPLC≥98%, No.: 38986_SIAL) were purchased from Sigma. 2′,4′-dihydroxychalcone (2′,4′-DHC, purity HPLC≥98%, Cat. No. AB151736) was purchased from abcr GmbH (Karlsruhe, Germany). Isobavachalcone (IBC), 4′-hydroxy-2′6′-dimethoxychalcone (HMC), 2-trifluoromethyl-2′-methoxychalcone (TFM) and Hydroxysafflor yellow A (HYA) were also tested.
Cell culture. THP-1 cells were cultured in RPMI 1640 culture medium (Gibco) supplemented with 10% fetal bovine serum (FBS; Gibco, UK.), 0.05 mM 2-mercaptoethanol, and 1% penicillin/streptomycin. Cells were used in exponential growth phase, with culture medium being replaced with fresh medium 1 day prior to the experiment. The following day, THP-1 cells were plated into 24-well culture plates with a cell density about 800,000 cells/mL and 2 mL per well. 10 ng/mL LPS was used to stimulate the THP-1 cells. RPMI 1640 medium containing 10% FBS and 1% P/S was used as a normal control (NC). 10 mM stock solutions of compounds in DMSO were diluted to 20 μM with complete culture medium just before use. Experiments were performed in quadruplicate.
Enzyme linked immune-sorbent assay (ELISA). At 24 hours, after centrifugation at 300 g for 10 min., 0.5 mL of supernatant was collected and stored at −80° C. until use. IL-23 levels were determined in culture supernatants as described in Example 1.

[5] abbreviates: LPS-stimulated THP-1, Example 8.

`COc1cc(O)c(OC)c(O)c1C(=O)/C=C/c1ccccc1` [(E) isomer, 2′,4′-dihydroxy-3′,6′-dimethoxychalcone]: in the experiment with IL-23 [1], the “activity of (E) isomer relative to (Z) isomer” value was determined as 5 fold. In the experiment with IL-23 [1] (LPS-stimulated THP-1 cell culture), the “inhibition of IL-23, (E) isomer compared with (Z) isomer” value is recorded as “greater”. Take `CC(=O)Oc1ccccc1C(=O)O` [Aspirin, reference compound]: the “change of IL-23 production/release in supernatant” value in the experiment with IL-23 [1] (setting [5]) was “no significant change”.

In the case of `COc1cc2c(c(OC)c1OC)-c1ccc(OC)c(=O)cc1[C@@H](NC(C)=O)CC2` [CLC, Colchicine], in experiment [2], the “reduction of MSU-induced knee joint edema” value is given as 32.6%. The “reduction of MSU-induced leukocyte recruitment” value in experiment [3] worked out at 1.6 fold. Further, the “decrease of IL-1ß in knee joint tissue” value with IL-1ß is “no effect”. Further, in the experiment on IL-6, the “decrease of IL-6 in knee joint tissue” value is recorded as “no effect”. Besides, in the experiment on IL-10, the “increase of the expression of IL-10 in knee joint tissue” value is listed as 1.5 fold. For the same compound, the “decrease of TNF-alpha in knee joint tissue” value with TNF-alpha was “no effect”. On to `COc1cc(O)cc(OC)c1C(=O)C=Cc1ccccc1` [HMC, 4′-hydroxy-2′6′-dimethoxychalcone], for which the “inhibition of IL-23 production” value in the experiment with IL-23 [4] was “do not inhibit”. For `CC(C)=CCc1c(O)ccc(C(=O)/C=C/c2ccc(O)cc2)c1O` [IBC, Isobavachalcone], the “inhibition of IL-23 production” value in the experiment on IL-23 [4] was “do not inhibit”.

Consider `CC(C)Cc1ccc(C(C)C(=O)O)cc1` (centres unmarked) [Ibuprofen, reference compound], for which the “reduction of IL-23 release in supernatant” value with IL-23 [1] (setting [5]) was 20-25%. What is called IC50 is the concentration that gives 50% inhibition. With `COc1cc(O)c(OC)c(O)c1C(=O)/C=C/c1ccccc1` [naturally isolated 2,4-D, 2′,4′-dihydroxy-3′,6′-dimethoxychalcone], in the experiment on IL-23 [4] (Homo sapiens, read-out: IC50 of inhibition of IL-23), the 50% inhibitory concentration (IC50) was ~2100 nM. On to Hydroxysafflor yellow A [HYA], for which the “inhibition of IL-23 production” value with IL-23 [4] is recorded as “do not inhibit”.
